Data from PubChem BioAssay (NCI).
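Step 1: Grow cells in 96-well plates. Step 2: Expose to compound for 48 hours at 5 concentrations. Step 3: Interpolate endpoints linearly; if unreached, use highest concentration. GI50 marks 50% less growth. At the TGI there is no net growth.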

Legend:
Assay in all cases: NCI tumour cell line growth inhibition, 48 h
SN12C renal = tested on: SN12C renal
T-47D breast = tested on: T-47D breast
EKVX NSCLC = tested on: EKVX NSCLC
COLO 205 colon = tested on: COLO 205 colon
UACC-62 melanoma = tested on: UACC-62 melanoma
HCT-15 colon = tested on: HCT-15 colon
SK-MEL-2 melanoma = tested on: SK-MEL-2 melanoma
NCI-H460 lung = tested on: NCI-H460 lung
SNB-19 CNS = tested on: SNB-19 CNS
IGROV1 ovarian = tested on: IGROV1 ovarian
MDA-MB-231 breast = tested on: MDA-MB-231 breast
A549 NSCLC = tested on: A549 NSCLC
NCI-H23 lung = tested on: NCI-H23 lung
M14 melanoma = tested on: M14 melanoma
K-562 leukemia = tested on: K-562 leukemia
HS 578T breast = tested on: HS 578T breast
OVCAR-8 ovarian = tested on: OVCAR-8 ovarian
SW-620 colon = tested on: SW-620 colon
UO-31 renal = tested on: UO-31 renal
MALME-3M melanoma = tested on: MALME-3M melanoma
HOP-92 NSCLC = tested on: HOP-92 NSCLC
SF-268 CNS = tested on: SF-268 CNS
HOP-62 NSCLC = tested on: HOP-62 NSCLC
MDA-MB-435 = tested on: MDA-MB-435
OVCAR-5 ovarian = tested on: OVCAR-5 ovarian
MCF7 breast = tested on: MCF7 breast
TK-10 renal = tested on: TK-10 renal
RXF 393 renal = tested on: RXF 393 renal
PC-3 prostate = tested on: PC-3 prostate
CCRF-CEM leukemia = tested on: CCRF-CEM leukemia
A498 renal = tested on: A498 renal
NCI-H226 lung = tested on: NCI-H226 lung
MOLT-4 leukemia = tested on: MOLT-4 leukemia
786-0 renal = tested on: 786-0 renal
SK-MEL-5 melanoma = tested on: SK-MEL-5 melanoma
ACHN renal = tested on: ACHN renal
KM12 colon = tested on: KM12 colon
BT-549 breast = tested on: BT-549 breast
SR leukemia = tested on: SR leukemia
CAKI-1 renal = tested on: CAKI-1 renal
U251 CNS = tested on: U251 CNS
OVCAR-3 ovarian = tested on: OVCAR-3 ovarian
NCI-H522 lung = tested on: NCI-H522 lung
DU-145 prostate = tested on: DU-145 prostate
HCT-116 colon = tested on: HCT-116 colon
SF-295 CNS = tested on: SF-295 CNS
SNB-75 CNS = tested on: SNB-75 CNS
LOX IMVI melanoma = tested on: LOX IMVI melanoma
OVCAR-4 ovarian = tested on: OVCAR-4 ovarian
SK-OV-3 ovarian = tested on: SK-OV-3 ovarian
UACC-257 melanoma = tested on: UACC-257 melanoma
HCC-2998 colon = tested on: HCC-2998 colon
SF-539 CNS = tested on: SF-539 CNS
NCI/ADR-RES ovarian = tested on: NCI/ADR-RES ovarian
HT29 colon = tested on: HT29 colon
SK-MEL-28 melanoma = tested on: SK-MEL-28 melanoma
RPMI-8226 leukemia = tested on: RPMI-8226 leukemia
HL-60(TB) leukemia = tested on: HL-60(TB) leukemia

Structure (SMILES): C/C(=N\NC(=S)N1CCCCC1)c1ccccn1
- GI50 (SN12C renal): 290 nM
- TGI (SN12C renal): 14300 nM
- GI50 (T-47D breast): < 10 nM
- TGI (T-47D breast): 5150 nM
- GI50 (EKVX NSCLC): < 14.5 nM
- TGI (EKVX NSCLC): 3990 nM
- GI50 (COLO 205 colon): < 10 nM
- TGI (COLO 205 colon): 41 nM
- GI50 (UACC-62 melanoma): 106 nM
- TGI (UACC-62 melanoma): 3930 nM
- GI50 (HCT-15 colon): < 16.9 nM
- TGI (HCT-15 colon): 12600 nM
- GI50 (SK-MEL-2 melanoma): 702 nM
- TGI (SK-MEL-2 melanoma): 3800 nM
- GI50 (NCI-H460 lung): < 15.1 nM
- TGI (NCI-H460 lung): 1500 nM
- GI50 (SNB-19 CNS): 158 nM
- TGI (SNB-19 CNS): 14500 nM
- GI50 (IGROV1 ovarian): < 10 nM
- TGI (IGROV1 ovarian): 5790 nM
- GI50 (MDA-MB-231 breast): 123 nM
- TGI (MDA-MB-231 breast): 6330 nM
- GI50 (A549 NSCLC): 23.5 nM
- TGI (A549 NSCLC): 4140 nM
- GI50 (NCI-H23 lung): < 10 nM
- TGI (NCI-H23 lung): 9710 nM
- GI50 (M14 melanoma): < 14.8 nM
- TGI (M14 melanoma): 2230 nM
- GI50 (K-562 leukemia): < 10 nM
- TGI (K-562 leukemia): 8760 nM
- GI50 (HS 578T breast): 142 nM
- GI50 (OVCAR-8 ovarian): < 10 nM
- TGI (OVCAR-8 ovarian): 2420 nM
- GI50 (SW-620 colon): 14.2 nM
- TGI (SW-620 colon): 7180 nM
- GI50 (UO-31 renal): < 12.3 nM
- TGI (UO-31 renal): 2290 nM
- GI50 (MALME-3M melanoma): 145 nM
- TGI (MALME-3M melanoma): 3050 nM
- GI50 (HOP-92 NSCLC): 96.3 nM
- TGI (HOP-92 NSCLC): 4540 nM
- GI50 (SF-268 CNS): 76.2 nM
- TGI (SF-268 CNS): 12300 nM
- GI50 (HOP-62 NSCLC): < 16 nM
- TGI (HOP-62 NSCLC): 3540 nM
- GI50 (MDA-MB-435): 208 nM
- TGI (MDA-MB-435): 5890 nM
- GI50 (OVCAR-5 ovarian): 54 nM
- TGI (OVCAR-5 ovarian): 13700 nM
- GI50 (MCF7 breast): < 10 nM
- TGI (MCF7 breast): 6130 nM
- GI50 (TK-10 renal): 472 nM
- TGI (TK-10 renal): 4140 nM
- GI50 (RXF 393 renal): 295 nM
- TGI (RXF 393 renal): 1790 nM
- GI50 (PC-3 prostate): < 10 nM
- TGI (PC-3 prostate): 12600 nM
- GI50 (CCRF-CEM leukemia): < 14.3 nM
- TGI (CCRF-CEM leukemia): > 25100 nM
- GI50 (A498 renal): 228 nM
- TGI (A498 renal): 2320 nM
- GI50 (NCI-H226 lung): 320 nM
- TGI (NCI-H226 lung): 2950 nM
- GI50 (MOLT-4 leukemia): 17.5 nM
- TGI (MOLT-4 leukemia): 1690 nM
- GI50 (786-0 renal): 51.7 nM
- TGI (786-0 renal): 2390 nM
- GI50 (SK-MEL-5 melanoma): 69.4 nM
- TGI (SK-MEL-5 melanoma): 870 nM
- GI50 (ACHN renal): < 11.6 nM
- TGI (ACHN renal): 7340 nM
- GI50 (KM12 colon): 63.4 nM
- TGI (KM12 colon): 4720 nM
- GI50 (BT-549 breast): 745 nM
- TGI (BT-549 breast): 5270 nM
- GI50 (SR leukemia): < 15.7 nM
- TGI (SR leukemia): 10700 nM
- GI50 (CAKI-1 renal): 103 nM
- TGI (CAKI-1 renal): 5220 nM
- GI50 (U251 CNS): < 10.5 nM
- TGI (U251 CNS): 10600 nM
- GI50 (OVCAR-3 ovarian): < 10 nM
- TGI (OVCAR-3 ovarian): 1690 nM
- GI50 (NCI-H522 lung): 136 nM
- TGI (NCI-H522 lung): 1510 nM
- GI50 (DU-145 prostate): 236 nM
- TGI (DU-145 prostate): 5670 nM
- GI50 (HCT-116 colon): < 10 nM
- TGI (HCT-116 colon): 1520 nM
- GI50 (SF-295 CNS): < 11.5 nM
- TGI (SF-295 CNS): 4500 nM
- GI50 (SNB-75 CNS): 1660 nM
- TGI (SNB-75 CNS): 6800 nM
- GI50 (LOX IMVI melanoma): < 10.6 nM
- TGI (LOX IMVI melanoma): 9030 nM
- GI50 (OVCAR-4 ovarian): < 10 nM
- TGI (OVCAR-4 ovarian): 4570 nM
- GI50 (SK-OV-3 ovarian): 213 nM
- TGI (SK-OV-3 ovarian): 1940 nM
- GI50 (UACC-257 melanoma): < 10 nM
- TGI (UACC-257 melanoma): 442 nM
- GI50 (HCC-2998 colon): 243 nM
- TGI (HCC-2998 colon): 6930 nM
- GI50 (SF-539 CNS): 257 nM
- TGI (SF-539 CNS): 6870 nM
- GI50 (NCI/ADR-RES ovarian): < 10 nM
- TGI (NCI/ADR-RES ovarian): 6770 nM
- GI50 (HT29 colon): < 10 nM
- TGI (HT29 colon): 4060 nM
- GI50 (SK-MEL-28 melanoma): 1130 nM
- TGI (SK-MEL-28 melanoma): 6660 nM
- GI50 (RPMI-8226 leukemia): 16 nM
- TGI (RPMI-8226 leukemia): 849 nM
- GI50 (HL-60(TB) leukemia): 52.7 nM
- TGI (HL-60(TB) leukemia): 2640 nM
